In brackets after ≈: the same amount, converted by molar mass.
Tests used:
Type in all cases: functional
MDA-MB-468 = assay: Anticancer activity against Homo sapiens (human) MDA-MB-468 cells after 48 hr by SRB assay; settings: MDA-MB-468, 48 h
NCI-H522 = assay: Anticancer activity against Homo sapiens (human) NCI-H522 cells after 48 hr by SRB assay; settings: NCI-H522, 48 h
Hs-578T [1] = assay: Anticancer activity against Homo sapiens (human) Hs 578T cells after 48 hr by SRB assay
BT-549 = assay: Anticancer activity against Homo sapiens (human) BT549 cells after 48 hr by SRB assay; settings: BT-549, 48 h
Staphylococcus aureus = assay: Antimicrobial activity against Staphylococcus aureus ATCC6538P assessed as diameter of growth inhibition zone at 1 mg/ml after 24 hr by agar cup diffusion method; settings: read-out: IZ
NCI-H226 = assay: Growth inhibition of Homo sapiens (human) NCI-H226 cells at 10 uM after 48 hr by SRB assay; settings: NCI-H226, 48 h, read-out: GI
Hs-578T [2] = assay: Growth inhibition of Homo sapiens (human) Hs 578T cells at 10 uM after 48 hr by SRB assay; settings: read-out: GI
MCF7 = assay: Growth inhibition of Homo sapiens (human) MCF7 cells at 10 uM after 48 hr by SRB assay; settings: MCF7, 48 h, read-out: GI
HOP-92 = assay: Anticancer activity against Homo sapiens (human) HOP92 cells after 48 hr by SRB assay; settings: HOP-92, 48 h
TK-10 = assay: Anticancer activity against Homo sapiens (human) TK10 cells after 48 hr by SRB assay; settings: TK-10, 48 h
SK-MEL-5 = assay: Growth inhibition of Homo sapiens (human) SK-MEL-5 cells at 10 uM after 48 hr by SRB assay; settings: SK-MEL-5, 48 h, read-out: GI
T47D = assay: Anticancer activity against Homo sapiens (human) T47D cells after 48 hr by SRB assay
OVCAR-3 = assay: Anticancer activity against Homo sapiens (human) OVCAR3 cells after 48 hr by SRB assay; settings: OVCAR-3, 48 h
OVCAR-4 = assay: Anticancer activity against Homo sapiens (human) OVCAR4 cells after 48 hr by SRB assay; settings: OVCAR-4, 48 h
DU-145 [3] = assay: Growth inhibition of Homo sapiens (human) DU145 cells at 10 uM after 48 hr by SRB assay; settings: DU-145, 48 h, read-out: GI
KM12 = assay: Anticancer activity against Homo sapiens (human) KM12 cells after 48 hr by SRB assay; settings: KM12, 48 h
Escherichia coli = assay: Antimicrobial activity against Escherichia coli ATCC8739 assessed as diameter of growth inhibition zone at 1 mg/ml after 24 hr by agar cup diffusion method; settings: ATCC8739, 24 h, read-out: IZ
SNB-19 = assay: Anticancer activity against Homo sapiens (human) SNB19 cells after 48 hr by SRB assay; settings: SNB-19, 48 h
HT-29 = assay: Growth inhibition of Homo sapiens (human) HT-29 cells at 10 uM after 48 hr by SRB assay; settings: HT-29, 48 h, read-out: GI
SW-620 = assay: Growth inhibition of Homo sapiens (human) SW620 cells at 10 uM after 48 hr by SRB assay; settings: SW-620, 48 h, read-out: GI
DU-145 [4] = assay: Anticancer activity against Homo sapiens (human) DU145 cells after 48 hr by SRB assay; settings: DU-145, 48 h
Pseudomonas aeruginosa = assay: Antimicrobial activity against Pseudomonas aeruginosa ATCC9027 assessed as growth inhibition after 48 hr by two-fold serial dilution method; settings: ATCC9027, 48 h
PC-3 = assay: Growth inhibition of Homo sapiens (human) PC3 cells at 10 uM after 48 hr by SRB assay; settings: PC-3, 48 h, read-out: GI
U-251 = assay: Anticancer activity against Homo sapiens (human) U251 cells after 48 hr by SRB assay; settings: U-251, 48 h
SK-MEL-28 = assay: Growth inhibition of Homo sapiens (human) SK-MEL-28 cells at 10 uM after 48 hr by SRB assay; settings: SK-MEL-28, 48 h, read-out: GI
IGROV-1 = assay: Anticancer activity against Homo sapiens (human) IGROV1 cells after 48 hr by SRB assay; settings: IGROV-1, 48 h
K562 = assay: Growth inhibition of Homo sapiens (human) K562 cells at 10 uM after 48 hr by SRB assay; settings: K562, 48 h, read-out: GI
MDA-MB-231 = assay: Anticancer activity against Homo sapiens (human) MDA-MB-231/ATCC cells after 48 hr by SRB assay; settings: MDA-MB-231, 48 h
COLO 205 = assay: Anticancer activity against Homo sapiens (human) COLO205 cells after 48 hr by SRB assay; settings: COLO 205, 48 h
RXF 393 = assay: Anticancer activity against Homo sapiens (human) RXF393 cells after 48 hr by SRB assay; settings: RXF 393, 48 h
NCI-H23 = assay: Anticancer activity against Homo sapiens (human) NCI-H23 cells after 48 hr by SRB assay; settings: NCI-H23, 48 h
HCT-116 = assay: Growth inhibition of Homo sapiens (human) HCT116 cells at 10 uM after 48 hr by SRB assay; settings: HCT-116, 48 h, read-out: GI
[5] = read-out: LC50 (the source's name)

Cc1c(C(N)=O)sc2nc(C)n(/N=c3\scc(-c4ccccc4)n3Cc3ccccc3)c(=O)c12
GI50 (MDA-MB-468): 2.65 µM
TGI (MDA-MB-468): > 100 µM
CC50 (MDA-MB-468; [5]): > 100 µM
GI50 (NCI-H522): 1.73 µM
TGI (NCI-H522): 7.23 µM
CC50 (NCI-H522; [5]): > 100 µM
GI50 (Hs-578T [1]): 3.85 µM
TGI (Hs-578T [1]): > 100 µM
CC50 (Hs-578T [1]; [5]): > 100 µM
GI50 (BT-549): 2.41 µM
TGI (BT-549): 8.89 µM
CC50 (BT-549; [5]): > 100 µM
zone of inhibition at 1000 µg/mL (Staphylococcus aureus): 10 mm
inhibition of growth at 10 µM (NCI-H226): 69.1%
inhibition of growth at 10 µM (Hs-578T [2]): 115%
inhibition of growth at 10 µM (MCF7): 82.7%
GI50 (HOP-92): 1.34 µM
TGI (HOP-92): 5.33 µM
CC50 (HOP-92; [5]): > 100 µM
GI50 (TK-10): 3.78 µM
TGI (TK-10): > 100 µM
CC50 (TK-10; [5]): > 100 µM
inhibition of growth at 10 µM (SK-MEL-5): 92.6%
GI50 (T47D): 3.25 µM
TGI (T47D): > 100 µM
CC50 (T47D; [5]): > 100 µM
GI50 (OVCAR-3): 2.28 µM
TGI (OVCAR-3): 8.58 µM
CC50 (OVCAR-3; [5]): > 100 µM
GI50 (OVCAR-4): 2.5 µM
TGI (OVCAR-4): > 100 µM
CC50 (OVCAR-4; [5]): > 100 µM
inhibition of growth at 10 µM (DU-145 [3]): 57.9%
GI50 (KM12): 3.37 µM
TGI (KM12): > 100 µM
CC50 (KM12; [5]): > 100 µM
zone of inhibition at 1000 µg/mL (Escherichia coli): 15 mm
GI50 (SNB-19): 4.8 µM
TGI (SNB-19): > 100 µM
CC50 (SNB-19; [5]): > 100 µM
inhibition of growth at 10 µM (HT-29): 20.5%
inhibition of growth at 10 µM (SW-620): 87.5%
GI50 (DU-145 [4]): 3.9 µM
TGI (DU-145 [4]): > 100 µM
CC50 (DU-145 [4]; [5]): > 100 µM
MIC (Pseudomonas aeruginosa): 125 µg/mL (≈ 256 µM)
inhibition of growth at 10 µM (PC-3): 98%
GI50 (U-251): 3.31 µM
TGI (U-251): > 100 µM
CC50 (U-251; [5]): > 100 µM
inhibition of growth at 10 µM (SK-MEL-28): 51.8%
GI50 (IGROV-1): 1.43 µM
TGI (IGROV-1): 6.31 µM
CC50 (IGROV-1; [5]): > 100 µM
inhibition of growth at 10 µM (K562): 91.6%
GI50 (MDA-MB-231): 3.28 µM
TGI (MDA-MB-231): 8.41 µM
CC50 (MDA-MB-231; [5]): > 100 µM
GI50 (COLO 205): 2.39 µM
TGI (COLO 205): 7.32 µM
CC50 (COLO 205; [5]): > 100 µM
GI50 (RXF 393): 3.43 µM
TGI (RXF 393): > 100 µM
CC50 (RXF 393; [5]): > 100 µM
GI50 (NCI-H23): 3.12 µM
TGI (NCI-H23): > 100 µM
CC50 (NCI-H23; [5]): > 100 µM
inhibition of growth at 10 µM (HCT-116): 70.9%
